The structures appear in SMILES notation.

For 16 molecules, EC50 and secretion of progranulin results are on record in US20220409593A1 (ARKUDA THERAPEUTICS, priority 2019, published 2022).

The subject of the first experiment is secreted mouse PGRN. Nature of the experiment: progranulin induction cellular assay (PGRN assay, ELISA-based readout). The note with it: Mus musculus, progranulin secreted into cell culture medium, cells named in method: mouse primary microglia, primary cortical neurons, BV-2. The method in brief: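 Mouse primary microglia, primary cortical neurons or BV-2 cells were plated the day before and given a 1 hour attachment period and 16 hour incubation. Secreted mouse progranulin in the medium, or progranulin retained in lysate, was quantified by ELISA.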
The term EC50 denotes the midpoint of the concentration-response curve. On to `Fc1ccc([C@H]2c3ccccc3CCN2C2=NC[C@]3(CCN(CC(F)(F)F)C3)O2)cc1` [Compound 3171, (R)-2-((S)-1-(4-fluorophenyl)-3,4-dihydroisoquinolin-2(1H)-yl)-7-(2,2,2-trifluoroethyl)-1-oxa-3,7-diazaspiro[4.4]non-2-ene], for which the EC50 was determined as 836 nM.
The same measure, in the same setting: to `CN1CCC(F)[C@]2(CN=C(N3CCc4ccccc4[C@@H]3c3ccc(F)cc3)O2)C1` (single isomer, unassigned) [Compound 3046] belongs 3370 nM; to `Fc1ccc([C@H]2c3ccccc3CCN2C2=NCC3(CCNCC3)O2)cc1` [Compound 3060, (S)-2-(1-(4-fluorophenyl)-3,4-dihydroisoquinolin-2(1H)-yl)-1-oxa-3,8-diazaspiro[4.5]dec-2-ene], 110 nM.
Same read-out and setting: the same measure for `Fc1ccc([C@H]2c3ccccc3CCN2C2=NCC3(CNCCC3F)O2)cc1` (stereo partly drawn) [Compound 3035, 10-fluoro-2-((S)-1-(4-fluorophenyl)-3,4-dihydroisoquinolin-2(1H)-yl)-1-oxa-3,7-diazaspiro[4.5]dec-2-ene]: 620 nM; for `Fc1ccc([C@H]2c3ccccc3CCN2C2=N[C@]3(CO2)CN2CCC3CC2)cc1` (single isomer, unassigned) [Compound 3057A]: 231 nM; for `Fc1ccc([C@H]2c3ccccc3CCN2C2=NC[C@]3(CNC[C@@H]3F)O2)cc1` (single isomer, unassigned) [Compound 3169]: 200 nM.
Still for that read-out and setting: to `Fc1ccc([C@H]2c3ccccc3CCN2C2=N[C@@H]([C@@H]3CCNC3)CO2)cc1` (single isomer, unassigned) [Compound 3074] belongs 338 nM; to `CN1CCC[C@@]2(CN=C(N3CCc4ccccc4[C@@H]3c3ccc(F)cc3F)O2)C1` (single isomer, unassigned) [Compound 3015], 880 nM.
The molecule `Fc1ccc([C@H]2c3ccccc3CCN2C2=NC[C@]3(CN4CCC3CC4)O2)c(F)c1` (single isomer, unassigned) [Compound 3017] displayed an EC50 of 260 nM.
The same measure, in the same setting: the same measure for `Fc1ccc([C@H]2c3ccccc3CCN2C2=NC[C@@H](C34CCN(CC3)CC4)O2)cc1` [Compound 3048, 2-((S)-1-(4-fluorophenyl)-3,4-dihydroisoquinolin-2(1H)-yl)-5-(quinuclidin-4-yl)-4,5-dihydrooxazole]: 110 nM; for `CN1CCC[C@]2(CN=C(N3CCc4ccccc4[C@@H]3c3ccc(F)c(F)c3)O2)C1` (stereo in doubt) [Compound 3029]: 4020 nM; for `Fc1ccc([C@@H]2c3ccccc3CCN2C2=NC[C@]3(CN4CCC3CC4)O2)cc1F` (stereo in doubt) [Compound 3027]: 2080 nM.
`Fc1ccc([C@@H]2c3ccccc3CCN2C2=NC[C@@]3(CN4CCC3CC4)O2)cc1F` (stereo in doubt) [Compound 3026] displayed an EC50 of 310 nM.
On the same count and under the same terms, the same measure for `NC[C@H]1C[C@]2(CN=C(N3CCc4ccccc4[C@@H]3c3ccc(F)cc3)O2)C1` (single isomer, unassigned) [Compound 3161]: 206 nM.

The experiment is the same for the next values; noted with them: progranulin secreted into cell culture medium, cells named in method: mouse primary microglia, primary cortical neurons, BV-2.
With `CN1CCC[C@]2(CN=C(N3CCc4ccccc4[C@@H]3c3cc(F)c(F)c(F)c3)O2)C1` (single isomer, unassigned) [Compound 3004], the EC50 was over 10000 nM.

A further experiment relates to mouse BV2 cells. The experiment in a line: secretion of progranulin from mouse BV2 cells. The class given is cell-based.
Details: not given
The text has this: The compounds disclosed herein (e.g., compounds of Formula I, II, IIa, IIb, III, and as shown in Tables A and B) can increase the amount of progranulin or granulin in a subject. In some cases, the compounds increase the amount of progranulin in a subject. In some cases, the compounds increase the amount of granulin in a subject. In some cases, the compounds affect cells to increase secretion of progranulin. Solifenacin is a drug currently used for urinary incontinence. […] As such, the compounds disclosed herein, (e.g., compounds of Formula I, II, IIa, IIb, III, and as shown in Tables A and B) can be useful in treating disorders associated with aberrant (e.g., reduced) progranulin secretion or activity.
As to `O=C(O[C@H]1CN2CCC1CC2)N1CCc2ccccc2[C@@H]1c1ccccc1` [Solifenacin], the secretion of progranulin entry was “causes the secretion of progranulin”.
